In patent US9266890B2, “Pyrimido-diazepinone kinase scaffold compounds and methods of treating disorders” (Dana-Farber Cancer Institute, Inc., priority 2009, dated 2016):

What follows are compounds tested against Plk1 (Homo sapiens (Human), UniProt P53350) (assay: Plk1 Cellular Assay - Mitotic Arrest Assay). Settings: Hela cells, immunofluorescence microscopy, 24 hours post-treatment.
Format: cell-based
Method: FIG. 2. […] Using immunofluorescence microscopy the cells were located by their DNA stain (Hoechst) and were then scored for phospho H3 positivity. Cells that are arrested in mitosis are phospho H3 positive.
Hela cells were plated at roughly 80% cell density on poly-lysine coated glass coverslips. After 24 hours the medium* was removed and fresh medium supplemented with test compounds was added. Twenty-four hours post-treatment the medium was removed, the coverslips were washed once with phosphate-buffered saline (PBS), pH 7.4 and the cells fixed for 10 minutes at room temperature using the following fixative solution: 100 mM K-Pipes, pH 6.8, 10 mM EGTA, 1 mM MgCl2, 0.2% Triton X-100, 3% formaldehyde. The coverslips were washed 3× with Tris-buffered saline solution (50 mM Tris-HCl pH 7.4, 150 mM NaCl) containing 0.1% Triton X-100 (TBST). The samples were blocked using 2% bovine serum albumin (BSA) in TBST. The samples were then incubated with a phosphorylation-specific antibody against histone 3 (phospho H3) serine-10 (Upstate, 1:500-1:1000) in blocking solution. Cells can also optionally be stained for tubulin as well using appropriate antibodies. After a 2-hr. incubation at room temperature (or 4° C. overnight), the samples were washed 3× with TBST. The samples were then incubated with an appropriate secondary antibody in blocking solution for 1-2 hrs at room temperature (or 4° C. overnight). […] The samples were washed 3× with TBST and mounted onto glass slides using Prolong Gold Antifade Reagent (Invitrogen). See FIGS. 2 and 3. *Hela/U2OS medium—Dulbecco's Modified Eagle's Medium (DMEM, Sigma), 10% fetal bovine serum, 1% penicillin/streptomycin

Plk1, sequence (P53350 whole entry): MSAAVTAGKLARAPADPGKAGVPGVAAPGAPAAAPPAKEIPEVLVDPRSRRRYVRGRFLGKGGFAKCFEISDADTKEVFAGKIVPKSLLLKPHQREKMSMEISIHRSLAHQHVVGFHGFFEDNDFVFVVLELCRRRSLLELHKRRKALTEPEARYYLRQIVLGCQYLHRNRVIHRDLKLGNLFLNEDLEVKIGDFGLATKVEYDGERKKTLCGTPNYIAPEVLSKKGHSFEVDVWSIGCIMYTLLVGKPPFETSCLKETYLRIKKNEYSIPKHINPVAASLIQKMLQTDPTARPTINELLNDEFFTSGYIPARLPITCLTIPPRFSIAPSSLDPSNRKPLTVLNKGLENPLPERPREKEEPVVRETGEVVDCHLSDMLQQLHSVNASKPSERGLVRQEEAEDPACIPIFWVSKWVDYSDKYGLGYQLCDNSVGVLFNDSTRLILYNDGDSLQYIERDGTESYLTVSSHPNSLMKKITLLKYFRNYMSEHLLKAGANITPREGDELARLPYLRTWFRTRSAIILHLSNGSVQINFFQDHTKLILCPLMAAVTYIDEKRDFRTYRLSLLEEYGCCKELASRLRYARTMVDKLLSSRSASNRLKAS

Structure (SMILES)	mitotic arrest (phospho H3 positivity)
COc1cc(N(C)CCO)ccc1Nc1ncc2c(n1)N(C1CCCC1)CCC(=O)N2C [Compound I-7]	do not
COc1cc(N2CCC(O)CC2)ccc1Nc1ncc2c(n1)N(C1CCCC1)CCC(=O)N2C [Compound I-6]	do not
COc1cc(C(=O)NC2CCN(C)CC2)ccc1Nc1ncc2c(n1)N(C1CCCC1)C(C)CC(=O)N2C (stereo not drawn) [Compound I-4]	induce a strong mitotic arrest
COc1cc(C(=O)NC2CCN(C)CC2)ccc1Nc1ncc2c(n1)N(C1CCCC1)CC(C)C(=O)N2C (stereo not drawn) [Compound I-5]	induce a strong mitotic arrest
COc1cc(N(C)CCCO)ccc1Nc1ncc2c(n1)N(C1CCCC1)CCC(=O)N2C [Compound I-8]	do not

What follows are compounds tested against Mps1 (TTK) (Homo sapiens (Human), UniProt P33981) (assay: Mps1 (TTK) Cellular Assay - Mitotic Escape Assay). Settings: Hela cells arrested with thymidine then nocodazole (0.33 μM); compound 0.25-10 uM for 2 hrs.
Mps1 (TTK), sequence (P33981 whole entry): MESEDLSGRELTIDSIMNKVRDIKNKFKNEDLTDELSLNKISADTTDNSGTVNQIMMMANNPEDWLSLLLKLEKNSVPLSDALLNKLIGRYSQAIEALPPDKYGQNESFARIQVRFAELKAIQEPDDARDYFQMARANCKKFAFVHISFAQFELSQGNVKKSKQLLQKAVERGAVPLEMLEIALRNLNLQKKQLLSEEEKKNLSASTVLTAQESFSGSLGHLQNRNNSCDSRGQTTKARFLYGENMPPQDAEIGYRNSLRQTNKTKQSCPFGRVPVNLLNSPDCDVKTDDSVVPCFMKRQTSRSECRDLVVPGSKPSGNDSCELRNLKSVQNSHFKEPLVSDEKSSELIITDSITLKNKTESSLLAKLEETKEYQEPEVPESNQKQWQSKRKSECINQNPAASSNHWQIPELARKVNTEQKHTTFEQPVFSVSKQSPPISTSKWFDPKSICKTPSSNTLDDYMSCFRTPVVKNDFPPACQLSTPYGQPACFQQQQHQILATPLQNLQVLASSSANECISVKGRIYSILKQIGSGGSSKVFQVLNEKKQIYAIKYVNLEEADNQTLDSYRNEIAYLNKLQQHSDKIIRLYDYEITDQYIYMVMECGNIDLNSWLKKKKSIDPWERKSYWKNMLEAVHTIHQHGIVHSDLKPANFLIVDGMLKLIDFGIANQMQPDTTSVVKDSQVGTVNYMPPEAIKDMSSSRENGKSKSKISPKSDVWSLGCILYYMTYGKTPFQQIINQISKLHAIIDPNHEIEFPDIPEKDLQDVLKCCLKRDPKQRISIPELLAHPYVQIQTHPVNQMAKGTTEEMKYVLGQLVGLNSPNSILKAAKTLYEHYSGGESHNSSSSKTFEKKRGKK
Format: cell-based
Method: FIG. 1. […] Hela cells were arrested in mitosis using the following protocol. Cells were treated with thymidine (2.5 mM) for 24 hours. Cells were released into medium containing nocodazole (0.33 μM). After 16 hrs. cells were treated with I-10 a range of concentrations (0.25, 0.5, 1, 2, 5 and 10 uM) shown above for 2 hrs. Cells were harvested and the levels of cyclin B (a marker for mitosis) were determined by immunoblot. High cyclin B levels indicated mitotic cells, while low cyclin B levels indicate cells have exited nocodazole-induced mitotic arrest.
Hela (or U2OS cells) were plated at roughly 30-35% cell density. After 24 hours the medium* was removed and fresh medium supplemented with 2.5 mM thymidine was added to arrest cells at the G1/S transition. After 24 hours in thymidine block the medium was removed, the cells were washed 3× with PBS and replaced with medium supplemented with 330 nM nocodazole (Noc). The cells were incubated with nocodazole for 16-18 hours to produce a mitotic arrest. […] After 2 hours, the cells were harvested, lysed in RIPA buffer, and the levels of cyclin B or phosphorylated Histone 3 (Ser10) determined by western blotting. Alternatively, cells were treated on coverslips, fixed, and phosphorylated Histone 3 levels determined by immunofluorescence. […]

Structure (SMILES)	escape from mitosis (cyclin B levels by immunoblot)
CCOc1cc(N2CCC(O)CC2)ccc1Nc1ncc2c(n1)N(C1CCCC1)CCC(=O)N2C [Compound I-10]	induces escape from mitosis
